In ChEMBL document CHEMBL1154198, “Chemical genetics of Plasmodium falciparum” (Nature, 2010):

Legend:
Plasmodium falciparum [1] = experiment: ST_JUDE: Plasmodium falciparum K1 EC50 (uM) as measured by SYBR green dye; format: functional, organism-based
Plasmodium falciparum [2] = experiment: ST_JUDE: Plasmodium falciparum 3D7 EC50 (uM) as measured by SYBR green dye; format: functional, organism-based

Row | EC50 (Plasmodium falciparum [1]) [µM] | EC50 (Plasmodium falciparum [2]) [µM] | Compound
1 | 1.29 | 2.48 | CCOc1ccccc1CN1CCN(Cc2cc(Br)ccc2O)CC1
2 | > 15 | > 15 | CCC(=O)C1=C(c2ccc(F)cc2)N(C(=O)CC)n2cnnc2S1
3 | 1.61 | 3.56 | Cn1c(=O)oc2cc(S(=O)(=O)N3CCCC(C(=O)N4CCN(C(c5ccccc5)c5ccccc5)CC4)C3)ccc21 (configuration not stated)
4 | 3.03 | 3 | Cc1c(C=O)c2ccccc2n1CC(=O)Nc1cccc(I)c1
5 | > 15 | 2.07 | CCCCN(CC)CCNC(=O)c1cc2c(-c3ccccc3F)nn(C)c2s1
6 | 4.97 | 4.1 | COc1ccc(OC)c2sc(N(Cc3cccnc3)C(=O)c3cccc(F)c3)nc12
7 | > 15 | > 15 | COCCn1/c(=N/C(=O)CSCC(=O)Nc2cc(C)on2)sc2cc(OC)ccc21
8 | > 15 | > 15 | COc1ccc(-n2c(C)cc(/C=c3\sc4nc5ccccc5n4c3=O)c2C)cc1
9 | > 15 | > 15 | O=S(=O)(Nc1ccc(-c2ccc(N3CCCC3)nn2)cc1)c1ccc(Br)cc1
10 | > 15 | 1.24 | Cc1ccc(Nc2cc(C)nc(Nc3ccc(NS(=O)(=O)c4cccc(F)c4)cc3)n2)cc1
11 | 0.35 | 0.527 | Cc1c(C)n(CC(O)CNC2CCCCC2C)c2ccccc12 (configuration not stated)
12 | 10.1 | > 15 | Cc1cccn2c(=O)nc(SCc3cccc(F)c3)nc12
13 | 0.178 | 0.62 | CN(C)c1ccc(C(O)(c2ccc(N(C)C)cc2)c2ccc(N(C)C)cc2)cc1 [METHYLROSANILINE]
14 | > 15 | 2.22 | CCCc1cc(O)nc(-n2nc(C)cc2NC(=O)c2cccc(C)c2)n1
15 | 1.74 | 1.52 | CCCCN(C)C(=O)C1c2ccccc2C(=O)N(CC(C)C)C1c1cccs1 (configuration not stated)
16 | 6.96 | 0.398 | CCOc1ccc2c(c1)C(=NNC(=N)N)c1cc(OCC)ccc1-2
17 | > 15 | > 15 | CCCCCN1CCN(c2nc3c(c(=O)[nH]c(=O)n3C)n2Cc2ccc(C)cc2)CC1
18 | > 15 | 5 | CCCN1CCC(N2CCCC(C(=O)c3ccc4cc(OC)ccc4c3)C2)CC1 (configuration not stated)
19 | 3.82 | 3.4 | COc1ccc(/C=C/c2cc[n+](C)cc2)cc1
20 | > 15 | > 15 | CCN1CCN(CCNC(=O)c2ccc(/C=C3/Sc4ccccc4N(Cc4cccc(Cl)c4)C3=O)cc2)CC1
21 | 1.59 | > 15 | Cc1ccc2oc(-c3cccc(NC(=O)C(Cl)(Cl)Cl)c3C)nc2c1
22 | > 15 | 7.92 | COc1ccc2cc(C(=O)C3CCCN(C4CCN(C(C)C)CC4)C3)ccc2c1 (configuration not stated)

Row | EC50 (Plasmodium falciparum [1]) [µM] | EC50 (Plasmodium falciparum [2]) [µM] | Compound
23 | 7.55 | > 15 | CS(=O)(=O)Nc1ccc2c(c1)CCCN2C(=O)c1cccs1
24 | > 15 | > 15 | COC(=O)c1ccccc1NC(=O)c1ccc(Cn2cc(Cl)cn2)cc1
25 | > 15 | > 15 | CC(C)(C)c1ccc(C(=O)CC(=O)c2cc(Cl)ccc2O)cc1
26 | 1.81 | 2.46 | c1ccc(CN2CCN(c3nc(N(c4ccccc4)c4ccccc4)nc(-n4ccnc4)n3)CC2)cc1
27 | 1.63 | 5.41 | O=C(Nc1ccc(F)c(Cl)c1)Nc1ccc(Cl)c(Cl)c1
28 | > 15 | > 15 | COc1ccc(-c2cc(=O)n(-c3ccc([N+](=O)[O-])cc3)[nH]2)cc1
29 | > 15 | > 15 | CCC[N+]12CCC(CC1)C(C(=O)c1cccs1)C2 (configuration not stated)
30 | 3.05 | > 15 | Oc1ccc(Nc2nc(-c3ccccc3)c3cc(Br)ccc3n2)cc1
31 | 1.32 | 2.53 | CCOC(=O)N1CCN(C(=O)CN(Cc2ccc(Cl)cc2)S(=O)(=O)c2ccc(C)cc2)CC1
32 | 1.49 | 1.41 | CCOCc1cc(CN2CCN(c3cccc(C(F)(F)F)c3)CC2)c(O)c2ncccc12
33 | 4.89 | 5.94 | Cc1cc(C)c2sc(NNC(=O)c3ccc(S(=O)(=O)N(C)C)cc3)nc2c1
34 | 9.39 | > 15 | CO/C(O)=C1\C(C)=NC2=C(C(=O)CC(c3ccccc3Cl)C2)C1c1ccc(OC)c(OC)c1 (configuration not stated)
35 | 4.15 | > 15 | CCCCCCc1cc(O)c2c(C)cc(=O)oc2c1
36 | > 15 | > 15 | CCc1cc(-c2[nH]ncc2-c2ccc(F)cc2)c(O)cc1OC
37 | > 15 | > 15 | CCCCN(CC)CCCNC(=O)Cn1ncc2c3ccccc3n(Cc3ccccc3)c2c1=O
38 | > 15 | > 15 | O=C(Cc1cccc(F)c1)N1CCC(=O)N(CC2CC2)CC1
39 | 3.67 | 5.66 | COc1cc(C(NC(=O)CCl)NC(=O)CCl)ccc1OCC(C)C
40 | 6.15 | 2.4 | CCN1CCN(c2cc(C)c3cc(NC(=S)NCCN4CCN(c5cccc(Cl)c5)CC4)ccc3n2)CC1
41 | > 15 | > 15 | Cc1ccc(CN2CCN(Cc3c(C)nn(C)c3Cl)CC2CCO)cc1 (configuration not stated)
42 | > 15 | > 15 | CCOCC(=O)Nc1ccc(S(=O)(=O)N2CCC(c3nc4ccccc4[nH]3)CC2)cc1
43 | 2.69 | > 15 | CCC(=O)NC(c1ccco1)c1cc(Cl)c2cccnc2c1O (configuration not stated)
44 | > 15 | 9.81 | COc1cc(SC)ccc1C(=O)N1CCCC(C)C1 (configuration not stated)

Row | EC50 (Plasmodium falciparum [1]) [µM] | EC50 (Plasmodium falciparum [2]) [µM] | Compound
45 | 1.7 | 1.39 | O=C(CSc1nc(-c2ccccc2Cl)ns1)Nc1cccc(Cl)c1
46 | > 15 | 3.98 | CCOc1ccc(C2c3cccn3CCN2C(=O)NCc2ccccc2)cc1 (configuration not stated)
47 | > 15 | > 15 | CC(C)(C)c1cc(C(=O)Cn2c(NCCO)nc3ccccc32)cc(C(C)(C)C)c1O
48 | > 15 | > 15 | Cc1ccc(Cn2c(=O)c3ccccc3n3c(CCC(=O)N4CCC(C(N)=O)CC4)nnc23)cc1
49 | 1.56 | 0.577 | CCN1CCN(CCCNC(=O)c2ccc3c(c2)sc2nc(-c4ccc(OC)cc4)cn23)CC1
50 | > 15 | > 15 | COc1ccc(NC(=O)c2sc3ccccc3c2Cl)c(OC)c1
51 | > 15 | > 15 | CCc1ccccc1Nc1nc(-c2cccnc2)cs1
52 | 1.62 | 1.54 | CCOc1cc(C2C3=C(O)CC(c4ccc(Cl)cc4)CC3=NC(C)=C2C(=O)OC(C)C)ccc1O (configuration not stated)
53 | 3.73 | 7.57 | COc1ccc(CN2CCN(CC(C)(C)C)C(CCO)C2)c(O)c1 (configuration not stated)
54 | 4.5 | 4.68 | CN(C)S(=O)(=O)c1ccc(C(=O)NNc2nc3ccc(Cl)cc3s2)cc1
55 | 1.44 | > 15 | Cc1ccc(NC(=O)C2c3ccccc3C(=O)N(C3CCCC3)C2c2cccs2)cc1 (configuration not stated)
56 | 1.91 | 5.72 | CCOc1ccc(Nc2c3ccccc3nc3ccccc23)cc1
57 | > 15 | > 15 | COc1ccc(S(=O)(=O)Nc2cc3sc(=O)oc3c3ccccc23)cc1
58 | 0.458 | 0.499 | COc1ccc(NC2=C/C(=N/S(=O)(=O)c3ccc(C(C)C)cc3)c3ccccc3C2=O)cc1
59 | > 15 | > 15 | CC1=C/C(=N\OC(=O)c2ccc(Br)cc2)C=CC1=O
60 | > 15 | > 15 | CO/C(O)=C1\C(C)=NC2=C(C(=O)CC(c3ccccc3OC)C2)C1c1ccc(OC)c(OC)c1 (configuration not stated)
61 | 6.2 | 2.75 | CN1CCN(c2nc(Nc3ccc(O)cc3)nc3ccccc23)CC1
62 | > 15 | > 15 | Brc1ccc(C2=CC(c3ccccc3)n3ncnc3N2)cc1 (configuration not stated)
63 | 2.96 | 0.458 | CCN(CC)CCNc1nc(Nc2cccc(OC)c2)c2cnn(-c3ccccc3)c2n1
64 | 2.5 | 1.66 | CCOC(=O)c1ccccc1NC(=S)N1CCCN(Cc2ccc(NC(C)=O)cc2)CC1
65 | > 15 | 1.18 | Cc1ccc(S(=O)(=O)Oc2ccc(/C=N/N=C(N)N)cc2)cc1
66 | > 15 | > 15 | CC1CCN(CCCNc2cc(NCCO)c([N+](=O)[O-])c3nonc23)CC1

Row | EC50 (Plasmodium falciparum [1]) [µM] | EC50 (Plasmodium falciparum [2]) [µM] | Compound
67 | 8.91 | 6.77 | COc1cc2c(cc1OC)C(COc1cccc(C(F)(F)F)c1)N(C(=O)C(C)(C)C)CC2 (configuration not stated)
68 | 1.81 | 2.05 | CCC(=O)NC(c1ccc(Cl)cc1)c1ccc2cccnc2c1O (configuration not stated)
69 | 0.0247 | 0.0191 | O=C1C(NC2CCCCC2)=C(N2CCCCC2)C(=O)c2ccccc21
70 | 1.58 | > 15 | CC(=O)c1ccc(NC2=C(n3nnc4ccccc43)C(=O)c3ccccc3C2=O)cc1
71 | 2.05 | 2.93 | CCCCc1ccc(NC(=O)CSc2nc3c(c(=O)n2C)SC(C)C3)cc1 (configuration not stated)
72 | 4.82 | > 15 | O=C(O)c1cccc(NC2=C(N3CCCCC3)C(=O)c3ccccc3C2=O)c1
73 | 1.8 | 1.39 | CCOc1ccc(-c2nonc2NC(=O)C(C)C)cc1OCC
74 | 0.595 | > 15 | CCCOc1ccccc1C(=O)Nc1nonc1-c1ccc(OCC)c(OCC)c1
75 | > 15 | > 15 | Cc1ccc(NC(=O)Nc2cccc(Cl)c2)cc1F
76 | 7.18 | 0.919 | Cc1ccc(S(=O)(=O)Nc2ccc(Nc3nc(C)cc(N4CCCC4)n3)cc2)cc1
77 | 0.571 | 1.07 | CCN1/C(=C/c2sc3ccccc3[n+]2CCO)C=Cc2cc(OC)ccc21
78 | > 15 | > 15 | CCCCCOCC1CC2(CC(C)(c3csc(Nc4ccccc4Cl)n3)OC2=O)C(=O)O1 (configuration not stated)
79 | 3.57 | 2.24 | CCCC(=O)NC(c1ccc(Cl)cc1Cl)c1ccc2cccnc2c1O (configuration not stated)
80 | > 15 | 3.55 | Cc1ccccc1Nc1nc(NCc2ccco2)c2ccccc2n1
81 | > 15 | > 15 | Cc1cc(Cl)c(S(=O)(=O)N(C)C)cc1OCC(=O)Nc1ccccc1
82 | 0.23 | 1.89 | O=C(Nc1cccc(C2=NCCN2)c1)Nc1cccc(C2=NCCN2)c1
83 | > 15 | > 15 | COc1ccc(CN2CCNC(=O)C2CC(=O)NCCOC(C)C)c(OC)c1 (configuration not stated)
84 | > 15 | > 15 | O=C(Nc1ccc(F)c(F)c1)c1ccc(=O)n(Cc2cccc([N+](=O)[O-])c2)c1
85 | 0.106 | 0.265 | CCN1C=CC(=Cc2ccc3cc(C)ccc3[n+]2C)C=C1
86 | 5.45 | > 15 | COc1cccc(NC(=O)Cn2c3ccccc3c(=O)c3cc(Cl)ccc32)c1
